Measured values as given in patent US10487117B2, “Antimicrobial peptide for nosocomial infections” (priority 2015, dated 2019).
Values joined by “and” are separate entries in the source; they are usually repeats but may differ in a detail not shown here. Identical values can stand only once. Residues, ends and D or L forms follow the SMILES beside them.

Assays:
[1] = tested on: pre-established P. aeruginosa biofilm; assay: Biofilm eradication assay, crystal violet staining; format: cell-based, Pseudomonas aeruginosa
Method: Following, the biofilm eradication activity was determined (FIG. 1 and Table 6). […] Moreover, the biofilm eradication activity of all the tested reference peptides was well above the maximum concentration tested (50 μM), except for RN3(5-17P22-36) which was able to eradicate the biofilm close to 50 μM.
(§1) Biofilm formation assay was modified from the previously described protocol (Huedo P. et al. 2014). Briefly, overnight cultures of P. aeruginosa were centrifuged at 5000×g for 5 min, washed and adjusted to an OD600=0.1 in tryptic soy medium (TSB). Two hundred microliters of the bacterial suspension were dispensed in each well of a polystyrene 96-well microtiter plate (Greiner Bio-one, France). The plate was incubated at 37° C. on an orbital shaker (30 rpm). The media was exchanged with fresh pre-warmed TSB after 4 h, in order to remove the non-attached bacteria. After 24 h incubation, the formation of biofilm was then evaluated using the crystal violet staining technique (Stepanovic S. et al. 2000). Briefly, the plates were washed three times with PBS, fixed at 60° C. for 1 h, and stained for 15 min with 200 μl of 0.1% crystal violet. After the dye was discarded, plates were rinsed in PBS and allowed to dry for 30 min at 37° C. Crystal violet was dissolved in 250 μl of 95% ethanol for 15 min, and the OD570 of the extracted dye was measured using a Victor3 plate reader (Perkin-Elmer, Waltham, Mass.).
Biofilms were grown as above. Twenty-four hour formed P. aeruginosa biofilm was washed three times with sterile PBS, and rinsed with 10 mM sodium phosphate buffer pH 7.5. Each well was treated with increasing protein/peptide concentrations (from 0.01 to 50 μM) and incubated at 37° C. for 4 h. The biofilm eradication was then evaluated using the crystal violet staining technique (Stepanovic S. et al. 2000). The ability of the antimicrobial peptides to disperse and reduce the biofilm mass of preformed biofilms was calculated. The peptide concentration required to achieve total preformed biofilm eradication after 4 h incubation time was estimated. A maximum reference value was taken for Triton X-100 at 10%. The minimum biofilm eradication concentration (MBEC), defined as the protein/peptide concentration where the 99.9% of the biofilm mass is eradicated was estimated.

planktonic P. aeruginosa [2] = format: cell-based, Pseudomonas aeruginosa; conditions: planktonic, 4 h
Method: The microbial cell viability was then assayed using the BacTiter-Glo™ luminescent kit. […] No cell reduction was detected for the peptide GL-13 even for the maximum concentration assayed (50 μM).
(§2) Bacterial viability was assayed using the BacTiter-Glo™ microbial cell viability kit. Briefly, protein/peptides were dissolved in 10 mM sodium phosphate, 0.1M buffer, pH 7.5, serially diluted from 50 to 0.1 μM and tested in a 96-well microtiter plate containing P. aeruginosa planktonic (OD600˜0.2) or 24 h formed biofilm for 4 h at 37° C. Fifty microliters of BacTiter-Glo™ reagent was added to each well according to the manufacturer's instructions and incubated at room temperature for 15 min. Luminescence was read on a Victor3 plate reader with a 3-s integration time. Fifty percent (ED50) and total inhibitory concentrations were calculated by fitting the data to a dose-response curve.

planktonic P. aeruginosa [3] = assay: Minimum agglutination concentration (MAC) assay; format: cell-based, Pseudomonas aeruginosa; conditions: 1 h at room temperature, mean ± SEM
Method: Bacterial agglutination of RNase 3 is important for the antimicrobial activity of the protein. Therefore, the peptide capability to agglutinate P. aeruginosa cells was assayed by the minimum agglutination concentration assay (MAC) (Table 3).
Bacterial cells were grown in LB at 37° C. to an OD600=0.2, centrifuged at 5000×g for 2 min and resuspended in 10 mM Tris-HCl buffer, 0.1 M NaCl, pH 7.5. An aliquot of 100 μl of the bacterial suspension was treated with increasing protein/peptide concentrations (from 0.01 to 50 μM) and incubated at room temperature for 1 h. The aggregation behavior was observed by visual inspection and the agglutinating activity is expressed as the minimum agglutinating concentration of the sample tested, as previously described (Torrent M. et al. 2012).

[4] = tested on: established P. aeruginosa biofilms; assay: DiSC3(5) membrane depolarization assay on biofilm; format: cell-based, Pseudomonas aeruginosa; conditions: maximum percentage at final incubation time, 10% Triton X-100 reference
Method: Membrane depolarization was followed using the method described earlier (Torrent M. et al. 2008). Briefly, bacterial cells were grown at 37° C. to an OD600=0.2, centrifuged at 5000×g for 7 min, washed with 5 mM Hepes at pH 7.2 containing 20 mM glucose, and resuspended in 5 mM Hepes-KOH, 20 mM glucose, and 100 mM KCl at pH 7.2 to an OD600=0.05 and 200 μl were transferred to a microtiter plate for planktonic assays. For biofilm assay, 24 h formed P. aeruginosa biofilm in a 96-well microtiter plate were washed three times with sterile PBS. Afterwards P. aeruginosa biofilms were washed with 5 mM Hepes at pH 7.2 containing 20 mM glucose, and rinsed in 5 mM Hepes-KOH, 20 mM glucose, and 100 mM KCl at pH 7.2. In both cases, DiSC3(5) was added to a final concentration of 0.4 μM and changes in the fluorescence were continuously recorded after addition of peptides at 10 μM in a Victor3 plate reader. A maximum reference value for total depolarization is calculated for Triton X-100 at 10%. Alternatively, changes in the fluorescence were continuously recorded after addition of a serially diluted protein/peptides from 50 to 0.1 μM. The peptide concentration required to achieve half of total and total membrane depolarization after 40 min incubation time was estimated from nonlinear regression analysis as previously described (Torrent M. et al. 2010)
(§3) Thereupon, the antimicrobial mechanism of action of the RNase 3 derived peptide on P. aeruginosa biofilms was further characterized with the depolarization and permeabilization assays. As applied for the P. aeruginosa planktonic culture, the fluorescent DisC3(5) assay was also used here in order to monitor the depolarization activity of the studied protein and peptides against established biofilms. Therefore, we have measured the half depolarization action (ED50), and the total depolarization activity expressed as a percentage (Table 7). […] Similar results were obtained for the Sytox Green permeabilization assay, where the total permeabilization effect was hindered for all the AMPs tested, and between two to ten times higher concentrations were required to achieve half of the biofilm cell permeabilizing effect in comparison to the planktonic cells.

planktonic P. aeruginosa [5] = assay: SYTOX Green membrane permeabilization assay, planktonic; format: cell-based, Pseudomonas aeruginosa; conditions: 10% Triton X-100 as maximum reference
Method: Further insight into the membrane-permeabilizing effect of the selected AMPs against P. aeruginosa was evaluated by the Sytox Green assay. Local membrane disturbances allow the cell uptake of the fluorescent Sytox Green dye that subsequently stains the cell nucleic acids; the fluorescence increase is registered to monitor the cell membrane permeabilization. Therefore, the half permeabilization action (ED50) was measured, and the total permeabilization activity expressed as a percentage (Table 5). […] On the other hand, WY-12 and CA-M required a 6- to 7-fold greater concentration than RNase 3 to produce half of their permeabilizing effect.
(§4) Membrane permeabilization was followed using the method SYTOX Green Fluorescence membrane permeabilization assay. In the planktonic assay, bacterial cells were grown at 37° C. to an OD600=0.2, centrifuged at 5000×g for 5 min, and resuspended in 1×PBS to an OD600=0.2. An aliquot of 200 μl was then transferred to a microtiter plate. For biofilm assay, 24 h formed P. aeruginosa biofilm in a 96-well microtiter plate were washed three times with sterile PBS. SYTOX Green was added to a final concentration of 1 μM and incubated 15 min in darkness. Changes in the fluorescence were continuously recorded after addition of a serially diluted protein/peptides from 50 to 0.1 μM in a Victor3 plate reader. The peptide concentration required to achieve half of total and total membrane permeabilization achieved after 40 min was estimated from nonlinear regression analysis as previously described (Pulido D. et al. Antimicrob Agents Chemother 2013). A maximum reference value was taken for Triton X-100 at 10%.

[6] = Biofilm cell mortality, BacTiter-Glo luminescent assay; format: cell-based, Pseudomonas aeruginosa; conditions: 24 h formed biofilm; 4 h at 37° C.; 10% Triton X-100 as maximum reference; N.D. = not detected at 50 μM; read-out: Biofilm cell mortality (%max)
Method: as §2
As a first approach, the biofilm cell viability was monitored using the BacTiter-Glo™ luminescent assay. Therefore, the antimicrobial action of the studied AMPs was determined on already established P. aeruginosa biolfilms (FIG. 1 and Table 6). […] However, for all the active peptides, the concentrations needed to produce an equivalent effect in biofilms were between 2 to 10 times higher than in planktonic cultures. […] At the same time, we applied the crystal violet technique to assess the peptide ability to disperse pre-established P. aeruginosa biofilms.
as §1

[7] = tested on: established P. aeruginosa biofilms; assay: SYTOX Green membrane permeabilization assay on biofilm; format: cell-based, Pseudomonas aeruginosa; conditions: maximum percentage at final incubation time, 10% Triton X-100 reference
Method: as §4, §3

[8] = tested on: biofilm-producing microorganism; assay: Antimicrobial and antibiofilm activities of peptides from the design process; format: cell-based; conditions: peptide from the design process
From the text: Furthermore, even though the peptide has been designed with the RNAse 3 sequence as starting point, the peptide has surprising advantages in respect of the RNase 3 due to the specific deletion and selection of the amino acids conforming the peptide amino acid. […] This is the case of the peptide ECP(7-13)(32-36) with sequence SEQ ID NO: 7.

Compound | Biofilm eradication (%max) ([1]; 24 h formed biofilm, 4 h at 37° C., 10% Triton X-100 as maximum reference, listed as the peptide of the invention) | biofilm eradication concentration (MBEC) ([1]; total eradication of preformed biofilm, 4 h, max tested 50 μM) [µM] | IC50 (planktonic P. aeruginosa [2]) [nM] | MAC (minimum agglutinating activity) (planktonic P. aeruginosa [3]) | Depolarization Mean % ± SEM [4] [%] | Permeabilization %max (planktonic P. aeruginosa [5]) [%] | mortality [6] [%] | Permeabilization Mean % ± SEM [7] [%] | antimicrobial and antibiofilm activities [8]
CC[C@H](C)[C@H](NC(=O)[C@H](C)NC(=O)[C@H](CCCNC(=N)N)NC(=O)[C@H](CCSC)NC(=O)[C@H](C)NC(=O)[C@@H](NC(=O)[C@@H](NC(=O)[C@H](CCCNC(=N)N)NC(=O)[C@@H]1CCCN1C(=O)[C@H](CO)NC(=O)[C@@H](NC(=O)[C@H](Cc1c[nH]cn1)NC(=O)[C@H](CCC(N)=O)NC(=O)[C@@H](NC(=O)[C@H](C)NC(=O)[C@H](Cc1ccccc1)NC(=O)[C@H](Cc1c[nH]c2ccccc12)NC(=O)[C@H](CCC(N)=O)NC(=O)[C@H](C)NC(=O)[C@H](CCCNC(=N)N)NC(=O)[C@@H](NC(=O)[C@H](Cc1ccccc1)NC(=O)[C@@H]1CCCN1C(=O)[C@@H](N)CCCNC(=N)N)[C@@H](C)O)[C@@H](C)CC)[C@@H](C)CC)[C@@H](C)O)[C@@H](C)CC)C(=O)N[C@@H](CC(N)=O)C(=O)N[C@@H](CC(N)=O)C(=O)N[C@@H](Cc1ccc(O)cc1)C(=O)N[C@@H](CCCNC(=N)N)C(=O)N[C@@H](Cc1c[nH]c2ccccc12)C(=O)N[C@@H](CCCNC(=N)N)C(N)=O [RN3(5-17P22-36)] (H-RPFTRAQWFAIQHISPRTIAMRAINNYRWR-NH2; N-terminus assumed) | totally disperse the cell community layer | ~50 | 1250 ± 100 | 1.5 µM and 1.50 ± 0.08 µM | 73.51 ± 1.94 | 63.63 ± 1.42 | 96.4 ± 2.41 | 64.26 ± 5.44 | –
ECP(7-13)(32-36): design-process peptide with sequence SEQ ID NO: 7, lacking the antimicrobial and antibiofilm activities (RAQWFAINYRWR; peptide ECP(7-13)(32-36)) | – | – | – | – | – | – | – | – | did not display the antimicrobial and antibiofilm activities
